The target in one test is T1, Leucine aminopeptidase (Plasmodium falciparum 3D7, UniProt Q8IL11).
T1 sequence (Q8IL11 whole entry): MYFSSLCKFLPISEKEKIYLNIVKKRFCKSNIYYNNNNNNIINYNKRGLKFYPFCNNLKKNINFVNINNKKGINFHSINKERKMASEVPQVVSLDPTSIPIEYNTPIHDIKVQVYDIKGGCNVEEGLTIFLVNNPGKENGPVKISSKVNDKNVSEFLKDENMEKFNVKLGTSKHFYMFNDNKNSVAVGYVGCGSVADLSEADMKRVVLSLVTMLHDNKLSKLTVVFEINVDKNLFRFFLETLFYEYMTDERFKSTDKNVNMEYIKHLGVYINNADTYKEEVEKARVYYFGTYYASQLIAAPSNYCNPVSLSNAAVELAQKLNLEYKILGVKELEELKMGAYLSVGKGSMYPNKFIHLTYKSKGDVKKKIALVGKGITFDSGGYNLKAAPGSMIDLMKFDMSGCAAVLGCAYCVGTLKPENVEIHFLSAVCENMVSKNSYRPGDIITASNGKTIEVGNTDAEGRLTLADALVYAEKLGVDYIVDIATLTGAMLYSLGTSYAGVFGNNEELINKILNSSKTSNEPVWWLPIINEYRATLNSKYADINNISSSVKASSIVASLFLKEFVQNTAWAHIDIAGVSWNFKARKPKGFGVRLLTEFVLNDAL
In words: P. falciparum M17LAP inhibitors, primary screen, biochemical, fluorogenic H-Leu-NHMec substrate, 1536-well (AID 1619). In kind it is functional.

The next test concerns the target Aspartyl aminopeptidase (Plasmodium falciparum 3D7, UniProt Q8I2J3). In words: Counterscreen for inhibitors of M1 and M17 aminopeptidases: QFRET-based biochemical high throughput dose response assay for inhibitors of the Plasmodium falciparum M18 Aspartyl Aminopeptidase (PFM18AAP). [Related PubChem assays: 1619 (Screening assay (M17LAP inhibitors).), 1445 (Screening assay (M1AAP inhibitors).)]. On the technique in general: The purpose of a counterscreen is to sort out artefacts and off-target activity.

A further test concerns the target Procathepsin L (Homo sapiens, UniProt P07711). In words: CTSL1 protease inhibition – biochemical, QFRET, 1536-well, counter-screen for M1/M17 aminopeptidase inhibitor project, dose response (AID 2214).
The subject of another test is Vero. Briefly: mammalian cell viability reduction – secondary assay, cytotoxicity control for West Nile virus antiviral project, dose response (AID 1650). The format is functional. The conditions noted are these: Chlorocebus sabaeus.
For test [1], the target named is T2, Estrogen receptor beta (Homo sapiens, UniProt Q92731). In words: blockers of SRC-3 recruitment to ERβ – biochemical, ELISA, streptavidin-HRP readout, orthogonal assay, confirmation (AID 1060).
T2 sequence (Q92731 whole entry): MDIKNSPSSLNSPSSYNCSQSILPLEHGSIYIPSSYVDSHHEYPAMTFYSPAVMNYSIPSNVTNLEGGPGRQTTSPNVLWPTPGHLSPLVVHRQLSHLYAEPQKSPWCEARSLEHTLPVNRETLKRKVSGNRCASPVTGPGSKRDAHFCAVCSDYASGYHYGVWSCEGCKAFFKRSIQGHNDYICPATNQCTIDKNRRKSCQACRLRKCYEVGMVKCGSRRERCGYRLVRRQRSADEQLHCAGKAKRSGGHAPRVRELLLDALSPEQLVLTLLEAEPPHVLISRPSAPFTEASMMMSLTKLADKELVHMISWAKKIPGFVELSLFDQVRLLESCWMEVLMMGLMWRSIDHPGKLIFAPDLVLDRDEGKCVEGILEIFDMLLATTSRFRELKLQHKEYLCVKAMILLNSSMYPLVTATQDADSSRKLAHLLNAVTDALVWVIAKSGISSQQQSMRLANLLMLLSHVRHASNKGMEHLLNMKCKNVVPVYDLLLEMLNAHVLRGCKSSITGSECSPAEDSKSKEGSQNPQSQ
A further test deals with Ephrin type-A receptor 4 (Mus musculus, UniProt Q03137). In words: EphA4 ligand-binding antagonists – biochemical, colorimetric, mouse EphA4, primary screen (AID 689). In kind it is functional.
Chain of Ephrin type-A receptor 4 (Q03137 whole entry): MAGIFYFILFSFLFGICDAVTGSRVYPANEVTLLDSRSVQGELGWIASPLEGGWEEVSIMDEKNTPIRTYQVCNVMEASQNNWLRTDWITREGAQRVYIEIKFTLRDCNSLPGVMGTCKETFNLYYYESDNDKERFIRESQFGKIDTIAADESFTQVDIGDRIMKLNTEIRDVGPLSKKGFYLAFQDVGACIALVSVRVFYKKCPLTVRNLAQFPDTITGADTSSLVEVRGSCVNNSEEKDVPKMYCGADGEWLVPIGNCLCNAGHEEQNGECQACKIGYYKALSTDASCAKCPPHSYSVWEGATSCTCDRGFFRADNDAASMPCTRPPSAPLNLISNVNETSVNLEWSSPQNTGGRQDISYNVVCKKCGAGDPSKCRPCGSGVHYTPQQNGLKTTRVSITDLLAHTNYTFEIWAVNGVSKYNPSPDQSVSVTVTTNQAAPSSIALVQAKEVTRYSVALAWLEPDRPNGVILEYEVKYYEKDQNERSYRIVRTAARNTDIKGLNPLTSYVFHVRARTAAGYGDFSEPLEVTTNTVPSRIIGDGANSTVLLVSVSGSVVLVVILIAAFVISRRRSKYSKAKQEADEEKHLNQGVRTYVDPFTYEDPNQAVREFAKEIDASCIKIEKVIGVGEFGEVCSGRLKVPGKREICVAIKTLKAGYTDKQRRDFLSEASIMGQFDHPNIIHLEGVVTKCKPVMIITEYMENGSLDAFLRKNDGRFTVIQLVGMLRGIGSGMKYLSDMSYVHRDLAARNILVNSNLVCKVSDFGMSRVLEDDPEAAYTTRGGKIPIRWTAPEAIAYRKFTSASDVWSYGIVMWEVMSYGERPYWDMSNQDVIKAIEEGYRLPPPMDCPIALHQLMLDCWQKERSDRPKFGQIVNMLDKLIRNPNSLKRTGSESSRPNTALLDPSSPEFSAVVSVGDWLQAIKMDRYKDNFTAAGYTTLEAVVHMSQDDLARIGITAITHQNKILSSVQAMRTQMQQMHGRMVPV
Test [2] has as its target T3, Induced myeloid leukemia cell differentiation protein Mcl-1 (Homo sapiens, UniProt Q07820). The format is functional.
The target in test [3] is T4, Tyrosine-protein phosphatase non-receptor type 7 (Homo sapiens, UniProt P35236).
T4 sequence (P35236 whole entry): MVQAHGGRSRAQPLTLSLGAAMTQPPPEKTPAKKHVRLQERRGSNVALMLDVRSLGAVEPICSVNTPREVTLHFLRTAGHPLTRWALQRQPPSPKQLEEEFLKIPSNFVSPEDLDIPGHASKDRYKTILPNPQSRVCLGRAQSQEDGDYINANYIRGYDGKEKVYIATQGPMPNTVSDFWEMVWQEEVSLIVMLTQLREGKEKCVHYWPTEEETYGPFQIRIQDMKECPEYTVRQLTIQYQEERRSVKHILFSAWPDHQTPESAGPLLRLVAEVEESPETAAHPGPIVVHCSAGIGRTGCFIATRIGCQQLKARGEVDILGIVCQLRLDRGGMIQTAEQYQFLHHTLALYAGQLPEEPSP
In words: HePTP tyrosine phosphatase activity blockers – biochemical, absorbance, leukemia target, primary screen (AID 521). The format is functional.

For the next test, the target named is T5, Bcl-2-like protein 10 (Homo sapiens, UniProt Q9HD36).
T5 sequence (Q9HD36 whole entry): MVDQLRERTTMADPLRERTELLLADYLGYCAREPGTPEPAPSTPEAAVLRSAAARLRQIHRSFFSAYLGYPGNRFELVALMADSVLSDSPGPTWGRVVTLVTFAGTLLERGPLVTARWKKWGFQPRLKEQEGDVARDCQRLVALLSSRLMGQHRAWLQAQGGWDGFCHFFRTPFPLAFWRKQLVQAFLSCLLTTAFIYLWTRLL
In words: Bcl-B/TR3 peptide binding disruption – biochemical, fluorescence polarization, FITC-TR3 peptide, selectivity assay for Bfl-1 inhibitor project, primary screen (AID 748).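 Note: fluorescence polarization from a fluorescein-labelled TR3 peptide binding purified Bcl-B.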 For orientation: In fluorescence polarisation assays a small probe gives low polarisation when free and higher when bound to something large.

Test [4] deals with T3, Induced myeloid leukemia cell differentiation protein Mcl-1. Briefly: blockers of MCL1 binding to BIM peptide – biochemical, fluorescence polarization, BIM-BH3 peptide, 1536-well, dose response (AID 2217).
Test [5] has as its target T2, Estrogen receptor beta.
Another test deals with Bcl-2-like protein 1 (Homo sapiens, UniProt Q07817). Briefly: blockers of BCLXL peptide binding – biochemical, fluorescence polarization, 1536-well, selectivity assay for MCL1 inhibitor project, dose response (AID 2218).
Chain of Bcl-2-like protein 1 (Q07817 whole entry): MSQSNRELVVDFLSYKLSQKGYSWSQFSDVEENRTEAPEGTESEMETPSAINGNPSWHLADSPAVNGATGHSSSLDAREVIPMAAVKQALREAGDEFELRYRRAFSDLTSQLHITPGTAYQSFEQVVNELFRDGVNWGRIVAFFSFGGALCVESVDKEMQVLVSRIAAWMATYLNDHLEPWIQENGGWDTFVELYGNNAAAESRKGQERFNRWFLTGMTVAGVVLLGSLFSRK
The target of test [6] is T6, Dual specificity protein phosphatase 6 (Rattus norvegicus, UniProt Q64346).
T6 sequence (Q64346 whole entry): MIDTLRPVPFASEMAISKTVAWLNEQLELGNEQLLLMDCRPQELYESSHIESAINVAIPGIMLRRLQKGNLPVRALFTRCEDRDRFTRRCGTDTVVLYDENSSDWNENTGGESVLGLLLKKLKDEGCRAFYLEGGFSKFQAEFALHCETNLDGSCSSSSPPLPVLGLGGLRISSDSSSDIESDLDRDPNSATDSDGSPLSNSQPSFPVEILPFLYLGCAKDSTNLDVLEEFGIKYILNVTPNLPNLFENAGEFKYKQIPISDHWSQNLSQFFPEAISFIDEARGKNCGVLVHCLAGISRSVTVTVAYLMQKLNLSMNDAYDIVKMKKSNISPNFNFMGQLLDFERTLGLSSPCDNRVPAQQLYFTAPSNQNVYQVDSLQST
Briefly: inhibition of rat DUSP6 enzyme activity – biochemical, in vitro, primary screen (AID 425).

The target of test [7] is Mothers against decapentaplegic homolog 3 (Homo sapiens, UniProt P84022). Briefly: inhibitors of SMAD-driven TGF-beta signaling – dose response (AID 715). The format is functional.
Chain of Mothers against decapentaplegic homolog 3 (P84022 whole entry): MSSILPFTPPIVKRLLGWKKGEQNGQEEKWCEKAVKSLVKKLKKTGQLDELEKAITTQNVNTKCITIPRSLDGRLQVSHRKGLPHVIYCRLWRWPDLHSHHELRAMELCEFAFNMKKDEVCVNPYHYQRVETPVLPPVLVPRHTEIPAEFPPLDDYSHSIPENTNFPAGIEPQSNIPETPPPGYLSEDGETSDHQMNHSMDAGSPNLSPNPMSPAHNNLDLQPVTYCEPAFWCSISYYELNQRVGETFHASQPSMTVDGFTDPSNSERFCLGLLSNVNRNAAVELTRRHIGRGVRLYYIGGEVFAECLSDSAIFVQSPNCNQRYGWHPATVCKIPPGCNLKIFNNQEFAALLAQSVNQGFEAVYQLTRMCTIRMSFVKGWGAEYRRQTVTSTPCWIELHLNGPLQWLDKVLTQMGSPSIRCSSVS
The nature of test [8]: Luminescence Cell-Based Dose Confirmation HTS to Identify Inhibitors of Polyadenylation. In kind it is functional.
Test [9] can be described thus: M. tuberculosis H37Rv growth inhibitors, H37Rv strain (AID 1626). The format is functional.
Test [10] addresses T7, Mannose-6-phosphate isomerase (Homo sapiens, UniProt P34949).
T7 sequence (P34949 whole entry): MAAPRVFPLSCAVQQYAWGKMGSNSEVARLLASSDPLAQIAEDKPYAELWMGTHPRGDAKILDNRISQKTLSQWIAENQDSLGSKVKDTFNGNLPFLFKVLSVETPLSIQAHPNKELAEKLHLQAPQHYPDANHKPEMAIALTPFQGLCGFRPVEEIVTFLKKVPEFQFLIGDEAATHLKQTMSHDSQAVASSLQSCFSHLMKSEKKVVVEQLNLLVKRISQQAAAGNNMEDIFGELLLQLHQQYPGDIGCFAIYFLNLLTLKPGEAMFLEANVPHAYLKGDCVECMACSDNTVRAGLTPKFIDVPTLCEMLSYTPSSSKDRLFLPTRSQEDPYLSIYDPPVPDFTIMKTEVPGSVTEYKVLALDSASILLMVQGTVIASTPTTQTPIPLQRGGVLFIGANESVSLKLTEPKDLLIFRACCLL
In words: MPI enzyme activity inhibition – biochemical, fluorescence intensity, coupled assay, primary screen (AID 1209).

Test [11] deals with T7, Mannose-6-phosphate isomerase. In words: MPI inhibition at elevated mannose 6-phosphate – biochemical, fluorescence intensity, high mannose 6-phosphate, primary screen (AID 1220).
The target in another test is Genome polyprotein (dengue virus type 2, UniProt P29990). In words: flavivirus cap methylation enzyme inhibition – biochemical, confirmation dose response, primary screen (AID 588689). In kind it is functional.
Chain of Genome polyprotein (P29990 2492-3391 limits assumed): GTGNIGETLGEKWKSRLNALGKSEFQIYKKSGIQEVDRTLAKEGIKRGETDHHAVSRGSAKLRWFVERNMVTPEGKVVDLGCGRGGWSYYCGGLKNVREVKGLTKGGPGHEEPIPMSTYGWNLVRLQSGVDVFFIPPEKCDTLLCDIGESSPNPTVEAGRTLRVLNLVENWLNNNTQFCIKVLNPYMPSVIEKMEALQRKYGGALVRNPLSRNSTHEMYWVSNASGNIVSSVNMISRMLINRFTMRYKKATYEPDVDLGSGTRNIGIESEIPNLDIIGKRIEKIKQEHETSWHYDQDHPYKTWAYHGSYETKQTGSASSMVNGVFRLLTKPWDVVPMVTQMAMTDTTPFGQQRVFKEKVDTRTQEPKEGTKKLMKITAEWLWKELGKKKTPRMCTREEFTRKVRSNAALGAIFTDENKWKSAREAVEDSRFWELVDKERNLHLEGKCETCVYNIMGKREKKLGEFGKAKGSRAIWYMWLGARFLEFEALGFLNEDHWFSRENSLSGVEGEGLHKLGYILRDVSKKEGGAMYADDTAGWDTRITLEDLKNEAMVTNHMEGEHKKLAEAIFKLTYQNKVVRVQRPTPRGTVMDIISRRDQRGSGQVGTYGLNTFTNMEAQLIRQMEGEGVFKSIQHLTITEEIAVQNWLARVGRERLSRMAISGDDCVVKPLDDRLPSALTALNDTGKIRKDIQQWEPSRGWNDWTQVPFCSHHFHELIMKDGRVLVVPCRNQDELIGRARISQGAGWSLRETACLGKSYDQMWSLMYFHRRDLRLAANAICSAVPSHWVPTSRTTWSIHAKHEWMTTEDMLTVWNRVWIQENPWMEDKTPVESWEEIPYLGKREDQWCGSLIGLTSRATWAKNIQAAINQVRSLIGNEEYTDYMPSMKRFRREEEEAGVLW
A further test has as its system Danio rerio. In words: In Vivo Angiogenesis Dose-Response Confirmation. [Related pubchem assays: 732 (Assay preceding this confirmatory assay.)]. In kind it is functional, organism-based.
Test [12] in a line: viability of uninfected HEp-2 cells – cell-based, HTS, cytotoxicity control for RSV inhibitor project, dose response (AID 2410). The conditions noted are these: human respiratory syncytial virus. The format is functional.
In a further test the target is T8, Estrogen receptor (Homo sapiens, UniProt P03372).
T8 sequence (P03372 whole entry): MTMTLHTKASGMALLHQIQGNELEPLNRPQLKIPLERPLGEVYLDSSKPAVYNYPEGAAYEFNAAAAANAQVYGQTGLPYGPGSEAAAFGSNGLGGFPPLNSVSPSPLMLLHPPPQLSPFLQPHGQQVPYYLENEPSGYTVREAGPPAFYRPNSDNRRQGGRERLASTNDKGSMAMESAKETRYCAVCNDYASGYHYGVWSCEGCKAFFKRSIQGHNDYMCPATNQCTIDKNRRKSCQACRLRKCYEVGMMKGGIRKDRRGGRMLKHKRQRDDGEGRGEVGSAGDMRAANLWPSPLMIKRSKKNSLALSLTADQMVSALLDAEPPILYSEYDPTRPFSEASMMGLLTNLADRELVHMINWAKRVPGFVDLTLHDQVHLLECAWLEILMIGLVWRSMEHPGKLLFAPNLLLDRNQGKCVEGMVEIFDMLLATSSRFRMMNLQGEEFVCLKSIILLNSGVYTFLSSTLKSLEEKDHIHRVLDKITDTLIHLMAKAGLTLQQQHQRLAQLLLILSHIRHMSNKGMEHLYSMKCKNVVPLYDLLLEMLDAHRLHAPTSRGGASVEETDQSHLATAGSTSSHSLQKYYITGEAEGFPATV

Test [13] has as its target T9, Endoribonuclease toxin MazF (Escherichia coli K-12, UniProt P0AE70).
T9 sequence (P0AE70 whole entry): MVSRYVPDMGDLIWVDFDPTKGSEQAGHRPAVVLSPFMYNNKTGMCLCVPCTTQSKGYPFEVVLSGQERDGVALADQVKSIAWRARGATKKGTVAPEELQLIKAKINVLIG
In words: activation of MazEF endoribonuclease cleavage – biochemical, fluorescence, single-stranded RNA substrate, uHTS hits, dose response (AID 588481). The format is functional.

The target in test [14] is T9, Endoribonuclease toxin MazF. Briefly: substrate-only fluorescence increase artefacts – biochemical, single-stranded RNase substrate, counter-screen for MazEF activator project, dose response (AID 588502). The format is functional.
Test [15] can be described thus: viability loss in HEK293T cells – cell-based, cherry-picks, cytotoxicity control for HIV Vif inhibitor project, dose response (AID 652208). The format is functional.

Activity calls are given as the source filed them. A value given as a limit tells only on which side of the number the result lay.

This is an account of results in ChEMBL document CHEMBL1201862, “PubChem BioAssay data set” (2004).

T3 sequence (Q07820 whole entry): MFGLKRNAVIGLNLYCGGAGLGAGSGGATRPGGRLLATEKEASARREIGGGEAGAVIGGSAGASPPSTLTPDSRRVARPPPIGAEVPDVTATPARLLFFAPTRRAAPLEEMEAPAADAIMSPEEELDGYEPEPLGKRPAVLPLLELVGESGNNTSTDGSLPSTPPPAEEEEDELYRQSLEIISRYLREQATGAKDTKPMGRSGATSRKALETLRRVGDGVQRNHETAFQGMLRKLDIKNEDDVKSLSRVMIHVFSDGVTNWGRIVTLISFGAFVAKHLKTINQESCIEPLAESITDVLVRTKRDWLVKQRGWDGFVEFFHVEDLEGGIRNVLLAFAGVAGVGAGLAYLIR
Chain of Aspartyl aminopeptidase (Q8I2J3 whole entry): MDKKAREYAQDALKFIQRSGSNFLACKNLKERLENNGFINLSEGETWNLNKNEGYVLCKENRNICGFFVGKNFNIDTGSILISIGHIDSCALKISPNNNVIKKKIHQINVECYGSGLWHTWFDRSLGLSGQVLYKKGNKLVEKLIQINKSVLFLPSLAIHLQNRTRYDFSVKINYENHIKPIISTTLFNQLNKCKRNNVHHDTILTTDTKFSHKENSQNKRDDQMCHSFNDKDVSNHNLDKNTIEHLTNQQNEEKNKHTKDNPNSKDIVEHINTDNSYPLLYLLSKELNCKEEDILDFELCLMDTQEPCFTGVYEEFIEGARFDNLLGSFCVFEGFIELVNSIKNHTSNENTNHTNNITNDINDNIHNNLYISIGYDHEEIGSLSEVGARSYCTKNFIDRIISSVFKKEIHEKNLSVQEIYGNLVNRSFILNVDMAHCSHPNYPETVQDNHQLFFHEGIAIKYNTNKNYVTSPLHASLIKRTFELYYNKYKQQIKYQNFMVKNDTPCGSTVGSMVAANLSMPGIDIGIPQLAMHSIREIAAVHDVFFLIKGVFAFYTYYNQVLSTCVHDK
Chain of Procathepsin L (P07711 whole entry): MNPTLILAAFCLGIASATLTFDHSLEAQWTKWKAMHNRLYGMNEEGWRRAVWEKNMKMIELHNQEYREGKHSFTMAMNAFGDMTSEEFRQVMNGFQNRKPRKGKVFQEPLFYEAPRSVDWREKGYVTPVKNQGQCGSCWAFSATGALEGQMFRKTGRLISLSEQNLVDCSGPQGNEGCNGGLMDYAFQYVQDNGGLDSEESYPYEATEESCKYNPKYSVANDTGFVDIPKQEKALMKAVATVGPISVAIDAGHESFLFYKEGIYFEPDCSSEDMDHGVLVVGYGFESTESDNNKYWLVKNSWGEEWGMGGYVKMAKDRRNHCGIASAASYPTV

Regarding `CCOc1ccc(NC(=O)Nc2ccc3nccnc3c2)cc1`, the IC50 (as a rule, the concentration needed to halve the response being measured) is 5.45 µM (active) at Leucine aminopeptidase, > 73.5 µM (not active) against Aspartyl aminopeptidase and > 59.6 µM (not active) on Procathepsin L.

`CC(C)n1nc(C(=O)Nc2cccc(S(=O)(=O)NCc3ccco3)c2)c2ccccc2c1=O`: in the test on Vero, the 50% cytotoxic concentration (CC50) (commonly the concentration at which the toxic effect on the cells reaches its halfway point) was 3.81 µM (active).

For `Cc1nc(C)c(C(=O)Nc2nc3c(C)cccc3s2)o1`, the values for the 50% inhibitory concentration (IC50) (against Estrogen receptor beta [1]; on Ephrin type-A receptor 4; in [2]) were 0.588 µM (not active), 11.3 µM (active) and 3.36 µM (active), respectively.

As for `COC(=O)c1ccccc1NC(=O)c1noc2c1CCC2`, the IC50 in test [3] was 2.33 µM (active); at Bcl-2-like protein 10 it was 16.5 µM (active); in test [4] it was 13.5 µM (not active); at Estrogen receptor beta [5] it was 2.18 µM (active); against Estrogen receptor beta [1], 9.45 µM (not active); at Bcl-2-like protein 1, > 109 µM (not active). Also, the IC50 in test [6] was > 10 µM (not active).

As to `CCCc1cc(=O)[nH]c(N=C(NC(=O)C(C)N2C(=O)c3ccccc3C2=O)Nc2ccccc2)n1` (stereo unspecified), in [7], the half-inhibitory concentration (IC50) is 8.78 µM (active).

In the case of `COc1ccc(-c2cccc(NC(=O)COc3ccc(Cl)cc3)c2)nn1`, the EC50 – broadly, the concentration that produces a half-maximal response – in [8] is recorded as > 120 µM (not active).

In the case of `Cn1nc(C(F)(F)F)c(-c2ccc(Br)cc2)c1NC(=O)c1cccnc1`, the 50% inhibitory concentration (IC50) in test [9] is > 100 µM (active).

For `Cc1cc(C(=O)N/N=C/c2ccc(O)c(O)c2O)c(C)n1-c1ccccc1`, the concentration for half-maximal inhibition (IC50) in [10] is > 50 µM (not active); in test [11] it was > 50 µM (not active); on Genome polyprotein, 41.9 µM (active).

For the compound `Cc1cccc2c1NC(=O)/C2=C1\Nc2ccccc2C1=O`, in the test on Danio rerio, the 50% inhibitory concentration (IC50) is 1.23 µM (active).

On to `O=C(Nc1ccc2oc(-c3ccc4ccccc4c3)nc2c1)c1cccs1`, for which the CC50 in [12] is 18.6 µM (active). At Estrogen receptor, the IC50 is 27.7 µM (active). Moreover, the EC50 in test [13] and in test [14] was > 99 µM (inactive) throughout. Besides, the half-maximal activity concentration (AC50) – broadly, the concentration giving half of the maximal activity seen – in test [15] was 31 µM (active).
